Experimental data from paper PMC12345137 (mBio, 2025).
Read-outs that look alike come from different tables or passages of the source.

Tests used:
[1] = biological target: SA AgrC-III (Staphylococcus aureus, UniProt O33590); settings: 100 nM cognate AIP, ± SEM, determined previously, ref (1), cited from earlier work
[2] = biological target: SA AgrC-IV (Staphylococcus aureus, UniProt Q309Z2); settings: ± SEM, determined previously, ref (1), cited from earlier work; for IC50, SA AgrC-IV, b-lactamase assay: 100 nM cognate AIP, -b = no inhibition recorded at the highest AIP concentration tested
[3] = biological target: SA AgrC-II (Staphylococcus aureus, UniProt O33587); settings: 100 nM cognate AIP, ± SEM, -b = no inhibition recorded at the highest AIP concentration tested, determined previously, ref (1), cited from earlier work; for IC50: read-out: IC50, SA AgrC-II, b-lactamase assay
[4] = biological target: S. epidermidis agr-III (Staphylococcus epidermidis, UniProt Q8VSX2); experiment: cell-based; type: cell-based; settings: fluorescent reporter strain; peptides tested at 1000, 50, 2.5, 0.125 nM or in dose-response
Procedure: (§1) Peptides were evaluated for the ability to interfere with agr-mediated quorum sensing in S. aureus (AH1677, AH430, AH1747, and AH1872 for agr-I–IV, respectively) ([40]) using reporter strains expressing yellow fluorescent protein (YFP) upon agr activation. Interference with agr-mediated quorum sensing in S. epidermidis (AH3408, AH3623, and AH3409 for agr-I–III, respectively) ([45]), and S. lugdunensis (AH4031 for agr-I) ([37]) was evaluated using reporter strains expressing superfolder green fluorescent protein (sGFP) upon agr activation. Overnight cultures of the reporter strains were grown in TSB medium containing chloramphenicol (CAM, 10 μg/mL for S. aureus) or erythromycin (ERM, 10 μg/mL of S. epidermidis and S. lugdunensis) and diluted 1:100 in fresh TSB medium containing the same antibiotic. Assays were performed in sterile black 96-well plates with a clear bottom. […] DMSO stock solutions of peptides (1 mM) were diluted in TSB media and added (15 μL) in technical triplicate to the 96-well plate, followed by diluted bacterial overnight cultures (135 μL). Control wells for 100% agr activity were wells replacing the peptide solution with TSB medium (15 μL). […] Wells containing 150 μL TSB medium were used to measure background fluorescence. The 96-well plates were incubated in a humidified incubator at 37°C shaking at 1,000 rpm for 22–24 h and fluorescence (for GFP: excitation 479 nm, emission 520 nm; for YFP: excitation 500 nm, emission 541 nm; automatic gain), and OD600 values were subsequently measured using a plate reader. Background fluorescence was subtracted from all wells and further normalized to the corresponding OD600 value of the respective wells. The average fluorescence of control wells was used as a relative measure for 100% activation of the agr-circuit, and bar graphs were generated using GraphPad Prism 10.4 software. All assays were performed in at least a biological duplicate.
(§2) Overnight cultures of the reporter strains were grown in TSB medium containing chloramphenicol (CAM, 10 μg/mL for S. aureus) or erythromycin (ERM, 10 μg/mL of S. epidermidis and S. lugdunensis) and diluted 1:100 in fresh TSB medium containing the same antibiotic. Assays were performed in sterile black 96-well plates with clear bottoms. Peptide solutions (15 μL) in 1:5 serial dilutions from DMSO stock solutions (1 mM) in TSB medium were added to the 96-well plate in technical duplicate followed by diluted bacterial overnight cultures (135 μL). Control wells for 100% agr activity were wells replacing the peptide solution with TSB medium (15 μL). Wells containing 150 μL TSB medium were used to measure background fluorescence. The 96-well plates were incubated in a humidified incubator at 37°C shaking at 1,000 rpm for 22–24 h and fluorescence (for GFP: excitation 479 nm, emission 520 nm; for YFP: excitation 500 nm, emission 541 nm; automatic gain), and OD600 values were subsequently measured using a plate reader. Background fluorescence was subtracted from all wells and further normalized to the corresponding OD600 value of the respective wells. The average fluorescence of control wells was used as a relative measure for 100% activation of the agr-circuit. Relative agr activity was plotted to obtain IC50 values by non-linear regression with variable slope using GraphPad Prism 10.4 software. All assays were performed in biological triplicate.

[5] = biological target: S. aureus agr-IV (Staphylococcus aureus, UniProt Q309Z2); experiment: cell-based; type: cell-based; settings: fluorescent reporter strain; peptides tested at 1000, 50, 2.5, 0.125 nM or in dose-response
Procedure: as §1, §2

[6] = test system: S. epidermidis (SE) agr-I; settings: fluorescence, cited from earlier work
[7] = test system: S. aureus (SA) agr-IV; settings: fluorescence, cited from earlier work
[8] = test system: S. aureus (SA) agr-III; settings: fluorescence, cited from earlier work
[9] = test system: S. epidermidis (SE) agr-II; settings: fluorescence, cited from earlier work
[10] = test system: S. aureus (SA) agr-I; settings: fluorescence, cited from earlier work
[11] = test system: S. aureus (SA) agr-II; settings: fluorescence, cited from earlier work
[12] = biological target: S. lugdunensis agr-I (Staphylococcus lugdunensis, UniProt Q8VSW5); experiment: cell-based; settings: fluorescent reporter strain; peptides tested at 1000, 50, 2.5, 0.125 nM or in dose-response
Procedure: as §1, §2

[13] = test system: S. epidermidis (SE) agr-III; settings: fluorescence; ref (13); cited from earlier work
[14] = -b = no inhibition recorded at the highest AIP concentration tested, read-out: IC50, SA AgrC-III, b-lactamase assay

SA AgrC-IV, sequence (Q309Z2 entry or part of it): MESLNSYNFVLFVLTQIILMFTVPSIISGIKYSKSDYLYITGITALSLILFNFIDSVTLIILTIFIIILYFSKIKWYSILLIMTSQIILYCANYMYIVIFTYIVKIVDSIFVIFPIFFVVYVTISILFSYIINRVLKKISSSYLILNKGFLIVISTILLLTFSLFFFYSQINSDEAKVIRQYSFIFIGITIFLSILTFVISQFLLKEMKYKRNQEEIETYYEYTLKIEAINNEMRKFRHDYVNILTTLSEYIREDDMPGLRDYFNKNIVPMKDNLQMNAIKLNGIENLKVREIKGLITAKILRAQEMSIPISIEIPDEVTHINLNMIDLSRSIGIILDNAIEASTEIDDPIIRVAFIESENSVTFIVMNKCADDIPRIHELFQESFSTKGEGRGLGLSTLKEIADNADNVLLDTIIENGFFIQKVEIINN
SA AgrC-III, sequence (O33590 entry or part of it): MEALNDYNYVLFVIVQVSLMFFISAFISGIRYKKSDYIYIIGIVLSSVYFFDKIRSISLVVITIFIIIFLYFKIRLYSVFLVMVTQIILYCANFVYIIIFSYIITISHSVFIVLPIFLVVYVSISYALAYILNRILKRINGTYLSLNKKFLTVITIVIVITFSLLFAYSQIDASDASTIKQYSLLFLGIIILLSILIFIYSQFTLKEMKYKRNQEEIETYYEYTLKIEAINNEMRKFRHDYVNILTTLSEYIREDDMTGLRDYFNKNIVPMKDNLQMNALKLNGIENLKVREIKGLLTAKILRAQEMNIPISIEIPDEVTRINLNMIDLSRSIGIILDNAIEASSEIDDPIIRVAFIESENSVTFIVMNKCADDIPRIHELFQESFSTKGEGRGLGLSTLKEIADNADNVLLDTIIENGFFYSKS
SA AgrC-II, sequence (O33587 entry or part of it): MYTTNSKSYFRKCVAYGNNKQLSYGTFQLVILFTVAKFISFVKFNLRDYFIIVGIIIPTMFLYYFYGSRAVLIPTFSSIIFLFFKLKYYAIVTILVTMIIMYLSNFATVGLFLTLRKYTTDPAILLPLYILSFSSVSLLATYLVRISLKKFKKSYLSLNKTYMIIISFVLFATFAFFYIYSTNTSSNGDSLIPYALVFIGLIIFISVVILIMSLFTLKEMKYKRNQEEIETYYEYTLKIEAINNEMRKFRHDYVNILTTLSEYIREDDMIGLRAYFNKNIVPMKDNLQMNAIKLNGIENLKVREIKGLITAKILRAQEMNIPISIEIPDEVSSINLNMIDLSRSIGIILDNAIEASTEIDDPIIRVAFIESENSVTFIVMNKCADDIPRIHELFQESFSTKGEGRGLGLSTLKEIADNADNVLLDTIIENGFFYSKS
S. epidermidis agr-III, sequence (Q8VSX2 entry or part of it): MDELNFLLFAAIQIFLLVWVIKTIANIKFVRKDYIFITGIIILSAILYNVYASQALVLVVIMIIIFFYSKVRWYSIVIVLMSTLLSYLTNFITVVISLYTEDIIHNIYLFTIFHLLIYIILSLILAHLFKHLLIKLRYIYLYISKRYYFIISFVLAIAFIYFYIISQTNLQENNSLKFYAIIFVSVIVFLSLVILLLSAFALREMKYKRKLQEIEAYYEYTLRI
S. aureus agr-IV, sequence (Q309Z2 entry or part of it): as the sequence (Q309Z2 entry or part of it) above
S. lugdunensis agr-I, sequence (Q8VSW5 entry or part of it): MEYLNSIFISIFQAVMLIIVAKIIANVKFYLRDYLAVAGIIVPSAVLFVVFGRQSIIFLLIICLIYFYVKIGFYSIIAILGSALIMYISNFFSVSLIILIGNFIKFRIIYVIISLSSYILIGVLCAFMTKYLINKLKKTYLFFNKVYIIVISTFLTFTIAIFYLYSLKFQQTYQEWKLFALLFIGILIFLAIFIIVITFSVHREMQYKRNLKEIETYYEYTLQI

Substance: S. schleiferi AIP-I [compound 30]
- IC50 ([1]; only partial inhibition observed, read-out: IC50, SA AgrC-III, b-lactamase assay, only partial inhibition observed (footnote a)): 80 ± 16 nM
- EC50 ([2]; read-out: EC50, SA AgrC-IV, b-lactamase assay): 31 ± 6 nM
- IC50 [3]: 86 ± 6 nM

Substance: S. simulans AIP-III W6A [compound 48]
- QS interaction in words (inhibition / activation), S. epidermidis agr-III [4]: no effect on S. epidermidis agr-III activation

Substance: S. simulans AIP-III 8-mer [compound 52]
- QS interaction in words (inhibition / activation), S. aureus agr-IV [5]: increased inhibition

Substance: S. warneri AIP-II [compound 17]
- IC50 ([6]; ref (14)): 12 nM
- IC50 ([7]; ref (14)): 2 nM
- IC50 ([8]; ref (14)): 2 nM
- IC50 ([9]; ref (14)): 4 nM
- IC50 ([10]; ref (14)): 2 nM
- IC50 ([11]; ref (14)): 30 nM

Substance: S. haemolyticus AIP-I [compound 15]
- IC50 [1, 14]: 340 ± 91 nM
- IC50, SA AgrC-II, b-lactamase assay [3]: -b

Substance: S. simulans AIP-III P4A [compound 47]
- QS interaction in words (inhibition / activation), S. lugdunensis agr-I [12]: increase in inhibition

Substance: S. hominis AIP-V [compound 14]
- IC50 ([6]; ref (13)): 10 nM
- IC50 ([7]; ref (13)): 3810 nM
- IC50 ([8]; ref (13)): 4 nM
- IC50 ([9]; ref (13)): 22 nM
- IC50 ([10]; ref (13)): 43 nM
- IC50 [13]: 2 nM
- IC50 ([11]; ref (13)): 59 nM

Substance: S. simulans AIP-III G7A [compound 49]
- QS interaction in words (inhibition / activation), S. epidermidis agr-III [4]: loss of activation

Substance: S. saprophyticus AIP-I [compound 19]
- IC50, SA AgrC-III, b-lactamase assay ([1]; -b = no inhibition recorded at the highest AIP concentration tested): -b
- IC50, SA AgrC-IV, b-lactamase assay [2]: -b

Substance: S. vitulinus AIP-I [compound 35]
- IC50 [1, 14]: 690 ± 46 nM
- IC50, SA AgrC-IV, b-lactamase assay [2]: -b
- IC50 [3]: 800 ± 116 nM
